{"source": "paper PMC11056381", "about": "“Characterization and evaluation of cytotoxic and antimicrobial activities of cyclotides from Viola japonica” (Scientific Reports, 2024)", "key": {"[1]": {"tested_on": "Bacillus subtilis (CMCC(B)63501)", "assay": "microbe, parasite or virus in culture", "source_text": "(§1) Viba 11, originally discovered in Viola baoshanensis[39] and found in other plants such as Viola tricolor[40], Viola betonicifolia, and Viola philippica, lacks biological activity studies. […] All purified cyclotides underwent antibacterial testing against Gram-positive bacterium Staphylococcus aureus (CMCC(B)26003-2-10) and Bacillus subtilis (CMCC(B)63501), Gram-negative bacteria, including Acinetobacter baumannii (ATCC19606), Escherichia coli (CMCC(B)44102-2-6), and Salmonella paratyphi (CMCC(B)50094-2-9).\n(§2) Bacterial fluids are cultured overnight at 37 °C. The next day, the bacterial liquids are diluted to a concentration of 10^6 CFU/ml. Prepare different concentrations of cyclotide drugs and kanamycin sulfate in advance, and sequentially add the drugs and bacterial liquid to the 96-well plate. Negative controls consisted of sterile water and bacterial liquid. The plate is cultured overnight at 37 °C and observe whether the solution remains clear to see the growth of the bacterial suspension. Each test was performed three times at least."}, "[2]": {"tested_on": "Escherichia coli (CMCC(B)44102-2-6)", "assay": "microbe, parasite or virus in culture", "source_text": "as §1, §2"}, "[3]": {"tested_on": "Acinetobacter baumannii (ATCC19606)", "assay": "microbe, parasite or virus in culture", "source_text": "as §1, §2"}, "[4]": {"tested_on": "Staphylococcus aureus (CMCC(B)26003-2-10)", "assay": "MIC, broth dilution in 96-well plate", "type": "cell-based", "conditions": "10^6 CFU/ml, overnight 37 °C, visual clarity, performed at least three times", "source_text": "(§3) Cycloviolacin O2, known for its antimicrobial, hemolytic, and insecticidal activities, has been more extensively investigated[4],[20],[36]–[38]. Viba 11, originally discovered in Viola baoshanensis[39] and found in other plants such as Viola tricolor[40], Viola betonicifolia, and Viola philippica, lacks biological activity studies. These two cyclotides and vija 10 are high in content and easy to purify, and cycloviolacin O2 can also be used as a positive control to conduct activity study. In addition, few vija12 and 31 were extracted for antibacterial experiments. All purified cyclotides underwent antibacterial testing against Gram-positive bacterium Staphylococcus aureus (CMCC(B)26003-2-10) and Bacillus subtilis (CMCC(B)63501), Gram-negative bacteria, including Acinetobacter baumannii (ATCC19606), Escherichia coli (CMCC(B)44102-2-6), and Salmonella paratyphi (CMCC(B)50094-2-9). […] In addition, the MICs of viba 11, cycloviolacin O2 and vija 10 against B. subtilis were respectively 5.4 μM, 2.1 μM and 14.3 μM (Table 1). […] Therefore, it is hypothesized that the lower antimicrobial activity of vija 10 may be attributed to the presence of only one Lys residue in loop 5.\nas §2"}, "[5]": {"tested_on": "Salmonella paratyphi (CMCC(B)50094-2-9)", "assay": "MIC, broth dilution in 96-well plate", "type": "cell-based", "conditions": "10^6 CFU/ml, overnight 37 °C, visual clarity, performed at least three times", "source_text": "as §3, §2"}, "[6]": {"tested_on": "A549 (human non-small cell lung cancer cells)", "assay": "MTT cytotoxicity assay", "type": "cell-based", "conditions": "48 h incubation, mean ± SD of at least three repeats", "method": "(§4) Five types of cells, namely A549 (human non-small cell lung cancer cells), T24 (human bladder cancer cells), 4T1 (mouse breast cancer cells), 7402 (human hepatocellular carcinoma cells), and THLE-3 (human hepatocytes cells), are selected for evaluating the cytotoxicity of viba 11, cycloviolacin O2, and vija 10 using the MTT (3-(4,5-dimethylthiazol-2-yl)-2,5-diphenyltetrazolium bromide) reagent.\n(§5) To determine cell toxicity using MTT assay, cells are seeded in a 96-well plate and cultured for 24 h. After that, different concentrations of cyclotides are added to the cells and incubated for 48 h. MTT is then added to react with the cells, and after 4 h, the reaction is terminated by discarding the supernatant and adding dimethyl sulfoxide for resuspension. The absorbance at 570 nm is measured after 10 min of shaking at room temperature. Each test was performed three times at least. The data were analyzed using GraphPad Prism 8. During this process, the drug concentrations were transformed into logarithmic form with a base of 10 and plotted on the x-axis. Cell viability (%) = [A (cyclotides) − A (blank)]/[A (control) − A (blank)] × 100, which was represented on the y-axis. Using this method, we determined the IC50 value for each experiment, with each experiment repeated at least three times and the mean value calculated. The error was represented by the standard deviation of the IC50 obtained from three repetitions."}, "[7]": {"tested_on": "4T1 (mouse breast cancer cells)", "assay": "MTT cytotoxicity assay", "type": "cell-based", "conditions": "4T1 cells, 48 h incubation, mean ± SD of at least three repeats", "method": "as §4, §5"}, "[8]": {"tested_on": "T24 (human bladder cancer cells)", "assay": "MTT cytotoxicity assay", "type": "cell-based", "conditions": "48 h incubation, mean ± SD of at least three repeats", "method": "as §4, §5"}, "[9]": {"tested_on": "7402 (human hepatocellular carcinoma cells)", "assay": "MTT cytotoxicity assay", "type": "cell-based", "conditions": "7402 cells, 48 h incubation, mean ± SD of at least three repeats", "method": "as §4, §5"}, "[10]": {"tested_on": "THLE-3 (human hepatocytes cells)", "assay": "MTT cytotoxicity assay", "type": "cell-based", "conditions": "THLE-3 cells, 48 h incubation, mean ± SD of at least three repeats", "method": "as §4, §5"}, "[11]": {"tested_on": "Acinetobacter baumannii", "assay": "Time killing kinetics", "type": "cell-based", "conditions": "about 10^6 CFU/mL, LB, 37 °C, colony count", "method": "In this study, we investigated the time-kill kinetics characteristics of plant cyclotides against bacteria. […] It is worth noting that due to experimental constraints, there was a slight discrepancy of a few minutes between theoretical 0 h and actual 0 h. […] Furthermore, we also conducted time-kill kinetics studies using vija 10 against B. subtilis.\nFigure 4 (A) The Acinetobacter baumannii time killing kinetics of cycloviolacin O2 at concentration of 1 MIC, 2 MIC, 4 MIC and 8 MIC at 37 °C. (B) The Bacillus subtilis time killing kinetics of vija 10 at concentration of 1 MIC, 2 MIC, 4 MIC at 37 °C. Each test was performed three times at least.\nIncubate A. baumannii and B. subtilis in fresh nutrient LB broth at 37 °C until logarithmic growth stage, then dilute to approximately 10^6 CFU/mL, and incubate with cycloviolacin O2 at concentrations of 1 MIC, 2 MIC, 4 MIC, 8 MIC with A. baumannii and vija 10 at concentrations of 1 MIC, 2 MIC, 4 MIC with B. subtilis respectively. Taking the mixture at time points of 0 h, 0.5 h, 1 h, 1.5 h and 2 h, dilute and coat it to solid medium for 24 h. Count the number of colonies on solid culture medium. Each test was performed three times at least. Plotting a line graph with time on the x-axis and bacterial survival on the y-axis using GraphPad Prism 8. Statistical analysis of bacterial viability at different time points to determine the bactericidal and bacteriostatic effects of cyclotides."}, "[12]": {"conditions": "10^6 CFU/ml, 96-well plate, overnight 37 °C, visual clarity, performed at least three times"}, "[13]": {"conditions": "Acinetobacter baumannii ATCC19606, 10^6 CFU/ml, 96-well plate, overnight 37 °C, visual clarity, performed at least three times"}}, "note": "Counter-ions that a name gives are not always drawn. Like-named read-outs stand apart in the source and are kept apart here. Residues, ends and D or L forms follow the SMILES beside them.", "data": [{"molecule": "NC[C@H]1O[C@H](O[C@H]2[C@H](O)[C@@H](O[C@H]3O[C@H](CO)[C@@H](O)[C@H](N)[C@H]3O)[C@H](N)C[C@@H]2N)[C@H](O)[C@@H](O)[C@@H]1O", "note": "[Kanamycin sulfate, reference compound]", "values": [{"measurement": "MIC", "setting": "[1]", "value": 4, "unit": "µM"}, {"measurement": "MIC", "setting": "[2]", "value": 8, "unit": "µM"}, {"measurement": "MIC", "setting": "[3]; Acinetobacter baumannii, ATCC19606", "value": 8, "unit": "µM"}]}, {"molecule": "CC[C@H](C)[C@@H]1NC(=O)[C@H](C)NC(=O)[C@H](CO)NC(=O)[C@H](CO)NC(=O)[C@H]([C@@H](C)CC)NC(=O)[C@@H]2CSSC[C@@H]3NC(=O)[C@H](C(C)C)NC(=O)[C@H](CCCCN)NC(=O)[C@H](CO)NC(=O)[C@H](CCCCN)NC(=O)[C@@H]4CSSC[C@H](NC(=O)[C@H](CO)NC(=O)[C@H](CCC(=O)O)NC(=O)CNC(=O)[C@H](CSSC[C@H](NC(=O)CNC1=O)C(=O)N[C@@H](CO)C(=O)N4)NC(=O)[C@@H]1CCCN1C(=O)[C@H]([C@@H](C)CC)NC(=O)CNC(=O)[C@H](CC(N)=O)NC(=O)[C@H](CCCNC(=N)N)NC(=O)[C@H](Cc1ccc(O)cc1)NC3=O)C(=O)N[C@@H](C(C)C)C(=O)N[C@@H](Cc1c[nH]c3ccccc13)C(=O)N[C@@H]([C@@H](C)CC)C(=O)N1CCC[C@H]1C(=O)N2", "note": "[cycloviolacin O2, reference compound] (HELM PEPTIDE1{A.I.G.C.S.C.K.S.K.V.C.Y.R.N.G.I.P.C.G.E.S.C.V.W.I.P.C.I.S.S}$PEPTIDE1,PEPTIDE1,4:R3-18:R3|PEPTIDE1,PEPTIDE1,6:R3-22:R3|PEPTIDE1,PEPTIDE1,11:R3-27:R3|PEPTIDE1,PEPTIDE1,1:R1-30:R2$$$V2.0)", "values": [{"measurement": "MIC", "setting": "[4]", "value": "> 16.8", "unit": "µM"}, {"measurement": "MIC", "setting": "[5]", "value": "> 16.8", "unit": "µM"}, {"measurement": "IC50", "setting": "[6]", "value": "149 ± 30", "unit": "nM"}, {"measurement": "IC50", "setting": "[7]", "value": "162 ± 10", "unit": "nM"}, {"measurement": "IC50", "setting": "[8]", "value": "1690 ± 160", "unit": "nM"}, {"measurement": "IC50", "setting": "[9]", "value": "1332 ± 10", "unit": "nM"}, {"measurement": "IC50", "setting": "[10]", "value": "1210 ± 50", "unit": "nM"}, {"measurement": "MIC", "setting": "[1]; [12]", "value": 2.1, "unit": "µM"}, {"measurement": "MIC", "setting": "[2]; [12]", "value": "> 16.8", "unit": "µM"}, {"measurement": "MIC", "setting": "[3]; [13]", "value": 4.2, "unit": "µM"}, {"measurement": "time of treatment to complete eradication of A. baumannii", "setting": "[11]; 4 MIC", "value": 2, "unit": "h"}, {"measurement": "time of treatment to complete eradication of A. baumannii", "setting": "[11]; 8 MIC", "value": 1.5, "unit": "h"}]}, {"molecule": "CC(C)C[C@@H]1NC(=O)[C@@H]2CCCN2C(=O)[C@H](Cc2ccc(O)cc2)NC(=O)[C@H](CCCCN)NC(=O)[C@H](C)NC(=O)[C@@H]2CSSC[C@@H]3NC(=O)[C@H]([C@@H](C)O)NC(=O)[C@H](CCC(=O)O)NC(=O)CNC(=O)[C@@H]4CSSC[C@H](NC(=O)CNC(=O)[C@@H]5CCCN5C(=O)[C@H]([C@@H](C)O)NC(=O)[C@H](Cc5ccccc5)NC(=O)[C@H](CSSC[C@H](NC1=O)C(=O)N[C@@H](CO)C(=O)N[C@@H](CCCCN)C(=O)N[C@@H](CC(N)=O)C(=O)NCC(=O)N[C@@H](CO)C(=O)N[C@@H](C(C)C)C(=O)N[C@@H]([C@@H](C)O)C(=O)NCC(=O)N4)NC(=O)[C@H](CCCCN)NC(=O)[C@H](Cc1ccccc1)NC(=O)[C@H](CCCCN)NC(=O)[C@H](Cc1ccccc1)NC3=O)C(=O)N[C@@H](CCCCN)C(=O)N2", "note": "[vija 31] (HELM PEPTIDE1{A.K.Y.P.L.C.S.K.N.G.S.V.T.G.C.G.E.T.C.F.K.F.K.C.F.T.P.G.C.K.C}$PEPTIDE1,PEPTIDE1,6:R3-24:R3|PEPTIDE1,PEPTIDE1,15:R3-29:R3|PEPTIDE1,PEPTIDE1,19:R3-31:R3|PEPTIDE1,PEPTIDE1,1:R1-31:R2$$$V2.0)", "values": [{"measurement": "MIC", "setting": "[3]; [13]", "value": 14.9, "unit": "µM"}]}, {"molecule": "CC[C@H](C)[C@@H]1NC(=O)[C@H](Cc2ccc(O)cc2)NC(=O)[C@H](CO)NC(=O)CNC(=O)[C@H](CC(N)=O)NC(=O)[C@H](CCCCN)NC(=O)[C@H](CCCCN)NC(=O)[C@@H]2CSSC[C@@H]3NC(=O)[C@H](CCCCN)NC(=O)[C@H](CC(C)C)NC(=O)[C@H](CCCCN)NC(=O)[C@H](C(C)C)NC(=O)[C@@H]4CSSC[C@H](NC(=O)[C@H]([C@@H](C)O)NC(=O)[C@H](CSSC[C@H](NC(=O)[C@H](CO)NC1=O)C(=O)NCC(=O)N[C@@H](CCC(=O)O)C(=O)N[C@@H]([C@@H](C)O)C(=O)N4)NC(=O)CNC(=O)[C@@H]1CCCN1C(=O)[C@H]([C@@H](C)O)NC(=O)[C@H](Cc1ccc(O)cc1)NC3=O)C(=O)N[C@@H]([C@@H](C)O)C(=O)N[C@@H](Cc1c[nH]c3ccccc13)C(=O)N1CCC[C@H]1C(=O)N[C@@H](C)C(=O)N2", "note": "[vija 12] (HELM PEPTIDE1{A.C.K.K.N.G.S.Y.I.S.C.G.E.T.C.V.K.L.K.C.Y.T.P.G.C.T.C.T.W.P}$PEPTIDE1,PEPTIDE1,2:R3-20:R3|PEPTIDE1,PEPTIDE1,11:R3-25:R3|PEPTIDE1,PEPTIDE1,15:R3-27:R3|PEPTIDE1,PEPTIDE1,1:R1-30:R2$$$V2.0)", "values": [{"measurement": "MIC", "setting": "[3]; [13]", "value": 14.9, "unit": "µM"}]}]}
